Experimental data taken from US11572377B2, “Nucleotide analogs” (The Regents of the University of California, priority 2015, dated 2023).
Like-named read-outs stand apart in the source and are kept apart here.

What was measured:
HPV-11 = experiment: Low risk HPV assay: HPV origin plasmid replication in HEK 293 cells (qPCR); type: cell-based, human papillomavirus
Procedure: (§1) An origin-containing low risk or high risk HPV plasmid was co-transfected with homologous E1 and E2 protein expression vectors into HEK 293 cells. At 4 h post-transfection, cells were treated with test compound dilutions and then incubated for 48 h. HPV origin plasmid replication was detected after digestion with DpnI and exonuclease III to remove unreplicated transfected plasmids. Remaining replicated DNA was quantified by quantitative real time PCR (qPCR). In a parallel experiment in uninfected cells cytotoxicity was determined by trypan blue exclusion or CELLTITER-GLO® to find the concentration that reduced viable cell number by 50% (CC50). CC50 values were determined by trypan blue exclusion or CELLTITER-GLO® and the selectivity index calculated (Selectivity index=CC50/EC50). The low risk HPV tested was HPV-11, and the high-risk HPV tested was HPV-16 and HPV-18.

[1] = Cytotoxicity assay in HEK-293 cells (CELLTITER-GLO); type: cell-based; conditions: human; for CC50 at 2 d: Table 3, CELLTITER-GLO, 2 d incubation; for CC50 at 48 h: Table B, parallel to HPV-11 antiviral assay
Procedure: as §1
Cytotoxicity Assays in HEK-293 cells. Cytotoxicity assays are performed in concurrently with every antiviral assay using the same cell line and media to ensure the same compound exposure. For the antiviral studies against HPV11 in HEK-293 cells, transfected cells are seeded in duplicate plates. Following a 2 h exposure, compound dilutions are prepared in both the antiviral plate and the duplicate cytotoxicity plate. At 48 h following compound addition, CELLTITE-GLO® (Promega) is added to each well and luminescence is determined on a luminometer. Concentrations of compounds sufficient to reduce cell viability by 50% are calculated from the experimental data (CC50 values).

[2] = Cytotoxicity assay in primary human foreskin fibroblast cells (CELLTITER-GLO); type: cell-based; conditions: Table 3, CELLTITER-GLO, 7 d incubation
Procedure: Cytotoxicity Assays in Primary Human Foreskin Fibroblast Cells. Cytotoxicity was also evaluated in human foreskin fibroblast (HFF) cells as they are a highly sensitive indicator of toxicity in a standard assay with 7 d of compound exposure. A total of 4000 cells/well are seeded in 384-well plates in cell culture media containing 2% fetal bovine serum and antibiotics. Following a 24 h incubation, 5-fold compound dilutions are performed in duplicate wells directly in the plates containing monolayers of HFF cells. At 7 d following compound addition, CELLTITER-GLO® reagent is added to each well and resulting luminescence is measured on a luminometer to assess the number of viable cells in each well. Data are then used to calculate CC50 values.

HPV-16 and HPV-18 = experiment: High risk HPV assay: HPV origin plasmid replication in HEK 293 cells (qPCR); type: cell-based, human papillomavirus; conditions: read-out: EC50 High Risk
Procedure: as §1

[3] = Human papillomavirus, HEK293, Antiviral activity against HPV-11 in HEK-293 cells, read-out: EC50
[4] = Human papillomavirus, HEK293, Antiviral activity against HPV-11 in HEK-293 cells, read-out: EC90
[5] = primary human foreskin fibroblast (HFF) cells
[6] = low risk HPV (HPV-11), HEK 293 cells, 48 h incubation, read-out: EC50 Low Risk

## CCOC(=O)[C@H](C)NP(=O)(COCCn1cnc2c(=O)[nH]c(N)nc21)N[C@@H](C)C(=O)OCC [PMEG bisamidate, 9-[2-(bis-(ethyloxy-L-alaninyl)-phosphonomethoxy)ethyl]guanine]
HPV-11; [3]
  EC50: 5.04 ± 7.01 µM
HPV-11; [4]
  EC90: > 100 µM
[1]; HEK-293 cells
  CC50 at 2 d: > 100 µM
  CC50 at 48 h: > 100 µM
[2]; [5]
  CC50 at 7 d: > 100 µM

## CCCCCCCCCCCCCCCCCCOCCOP(=O)(COCCn1cnc2c(=O)[nH]c(N)nc21)OCc1cccc(Cl)c1 (stereo not drawn) [ODE-(3-Cl-Bn)-PMEG]
HPV-11; [3]
  EC50: 0.22 ± 0.19 µM
HPV-11; [4]
  EC90: > 0.4 µM
[1]; HEK-293 cells
  CC50 at 2 d: 1 ± 0.16 µM
  CC50 at 48 h: 1.11 ± 0.27 µM
[2]; [5]
  CC50 at 7 d: 4.65 ± 1.73 µM

## CCCCCCCCCCCCCCCCCCOCCOP(=O)(COCCn1cnc2c(=O)[nH]c(N)nc21)OCc1ccc(OC)c(Cl)c1 (stereo not drawn) [ODE-(3-Cl-4-OMe-Bn)-PMEG]
HPV-11; [3]
  EC50: 0.68 ± 0.62 µM
HPV-11; [4]
  EC90: 1.34 ± 0.78 µM
[1]; HEK-293 cells
  CC50 at 2 d: 8.87 ± 1.2 µM
  CC50 at 48 h: 8.31 ± 1.83 µM
[2]; [5]
  CC50 at 7 d: 2.27 ± 0.51 µM

## CCCCCCCCCCCCCCCCCCOCC(COP(=O)(O)COCCn1cnc2c(=O)[nH]c(N)nc21)OCc1ccccc1 (stereo not drawn) [ODBG-PMEG, 1-O-Octadecyl-2-O-benzyl-sn-glyceryl PMEG]
HPV-11; Human papillomavirus, HEK293, low risk HPV (HPV-11), HEK 293 cells, 48 h incubation, read-out: EC50 Low Risk
  EC50: 0.3 to 3.09 µM
HPV-16 and HPV-18; Human papillomavirus, HEK293, 48 h
  EC50: 0.3 to 3.09 µM

## Nc1ccn(C[C@@H](CO)OCP(=O)(O)O)c(=O)n1 [Cidofovir, cidofovir, reference compound]
HPV-11; [3]
  EC50: 41.7 ± 12 µM
HPV-11; [4]
  EC90: > 300 µM
[1]; HEK-293 cells
  CC50 at 2 d: > 300 µM
  CC50 at 48 h: > 300 µM
[2]; [5]
  CC50 at 7 d: > 300 µM

## CCCCCCCCCCCCCCCCCCOCCOP(=O)(COCCn1cnc2c(=O)[nH]c(N)nc21)OCc1ccc(C)cc1 (stereo not drawn) [ODE-(4-Me-Bn)-PMEG]
HPV-11; [3]
  EC50: 0.93 ± 0.91 µM
HPV-11; [4]
  EC90: 7 ± 3.45 µM
[1]; HEK-293 cells
  CC50 at 2 d: 32 ± 8.14 µM
  CC50 at 48 h: 23.8 ± 19.5 µM
[2]; [5]
  CC50 at 7 d: 6.02 ± 3.79 µM

## CCOC(=O)[C@H](C)NP(=O)(COCCn1cnc2c(=O)[nH]c(N)nc21)Oc1ccccc1 (stereo partly drawn) [PMEG phenoxy amidate]
HPV-11; Human papillomavirus, HEK293
  EC50: 7.56 ± 0.63 µM
  EC90: > 100 µM
[1]
  CC50 at 2 d: > 100 µM
[1]; HEK-293 cells
  CC50 at 48 h: > 100 µM
[2]; read-out: CC50 HFF (7 d incubation)
  CC50 at 7 d: 70.9 ± 4.07 µM

## CCCCCCCCCCCCCCCCCCOCCOP(=O)(COCCn1cnc2c(=O)[nH]c(N)nc21)OCc1ccc(OC)c(F)c1 (stereo not drawn) [ODE-(3-F-4-OMe-Bn)-PMEG]
HPV-11; [3]
  EC50: 0.18 ± 0.04 µM
HPV-11; [4]
  EC90: 0.99 ± 0.13 µM
[1]; HEK-293 cells
  CC50 at 2 d: 13.1 ± 5.17 µM
  CC50 at 48 h: 14.2 ± 9.48 µM
[2]; [5]
  CC50 at 7 d: 1.72 ± 0.66 µM

## CCCCCCCCCCCCCCCCCCOCCOP(=O)(O)COCCn1cnc2c(=O)[nH]c(N)nc21 [ODE-PMEG, Octadecyloxyethyl-Phosphonomethoxyethylguanine, reference compound]
HPV-11; [6]
  EC50: < 0.3 µM
HPV-16 and HPV-18; high risk HPV (HPV-16 and HPV-18), HEK 293 cells, 48 h incubation
  EC50: < 0.3 µM

## Nc1nc2c(ncn2CCOCP(=O)(O)O)c(=O)[nH]1 [PMEG, 9-(2-phosphonylmethoxyethyl)guanine, reference compound]
HPV-11; [6]
  EC50: 3 to 30 µM

## CCCCCCCCCCCCCCCCCCOCCOP(=O)(COCCn1cnc2c(=O)[nH]c(N)nc21)OCc1cccc(F)c1 (stereo not drawn) [ODE-(3-F-Bn)-PMEG]
HPV-11; [3]
  EC50: 0.26 µM
HPV-11; [4]
  EC90: 1.59 ± 0.57 µM
[1]; HEK-293 cells
  CC50 at 2 d: 2.16 ± 0.36 µM
  CC50 at 48 h: 1.74 ± 0.03 µM
[2]; [5]
  CC50 at 7 d: 6.88 ± 4.92 µM
